Laboratory results taken from USRE48335E1, “Polymyxin derivatives as antimicrobial compounds” (priority 2014, dated 2020).
Values after ≈ are worked out from the molar mass of the structure shown. Where two headings read alike, the source gives them in different places. Positions of bridges follow the written chain, without caps; N, C: chain ends. Non-standard residues stand in square brackets, D forms with d. Residues, ends and D or L forms follow the SMILES beside them. *: point of attachment. Benzoyl(4-(4-Cl-Ph)) = O=C(c1ccc(-c2ccc(Cl)cc2)cc1)*; Benzoyl(3-CF3) = O=C(c1cccc(C(F)(F)F)c1)*; Benzoyl(4-Cl) = O=C(c1ccc(Cl)cc1)*; Butanoyl(4-Ph) = O=C(CCCc1ccccc1)*; X12 = O=C(c1ccc(C(F)(F)F)c(F)c1)*; X11 = Cc1ccc(C(=O)*)cc1Cl; Octanoyl = CCCCCCCC(=O)*; Dab = NCC[C@H](N)C(=O)O; Abu = CC[C@H](N)C(=O)O; Dap = NC[C@H](N)C(=O)O

Assays:
Enterobacter cloacae = test system: Enterobacter cloacae
Summary of the method: (§1)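 MICs were determined for the lipopeptides, tested as trifluoroacetic acid salts, by broth microdilution in cation-adjusted Mueller-Hinton broth following CLSI standards (M100-S18). Polymyxin B sulphate served as the control.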

Pseudomonas aeruginosa = test system: Pseudomonas aeruginosa
Summary of the method: as §1

Acinetobacter baumannii = test system: Acinetobacter baumannii
Summary of the method: as §1

Klebsiella pneumoniae = test system: Klebsiella pneumoniae
Summary of the method: as §1

A. baumannii ATCC 19606 = experiment: In vivo efficacy in mouse blood infection model (neutropenic Swiss mice); details: compound, free base 4 mg/kg intravenously 2 h after inoculation, blood at 4 h
Summary of the method: (§2)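 Neutropenic Swiss mice (cyclophosphamide 150 mg/kg day −4, 100 mg/kg day −1, i.p.) infected i.v. with early log-phase bacteria; 4 mg/kg free base i.v. given 2 h post-inoculation. Blood CFU by cardiac puncture 4 h post-dose; Δlog10 CFU/mL treated versus saline controls.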

P. aeruginosa ATCC 27853 = experiment: as above; details: compound, free base 4 mg/kg intravenously 2 h after inoculation, blood at 4 h
Summary of the method: as §2

Structure (SMILES) | Minimum inhibitory concentration, Ec FADDI-EC001 (Enterobacter cloacae) [µg/mL] | Minimum inhibitory concentration, Ec FADDI-EC003 (Enterobacter cloacae) [µg/mL] | Minimum inhibitory concentration, Ec FADDI-EC006 (Enterobacter cloacae) [µg/mL] | MIC (Pseudomonas aeruginosa) [µg/mL] | Minimum inhibitory concentration, Pa ATCC 27853 (Pseudomonas aeruginosa) [µg/mL] | Minimum inhibitory concentration, Pa FADDI-PA022 (Pseudomonas aeruginosa) [µg/mL] | Minimum inhibitory concentration, Pa FADDI-PA025 (Pseudomonas aeruginosa) [µg/mL] | MIC (Acinetobacter baumannii) [µg/mL] | Minimum inhibitory concentration, Ab A ATCC 17978 (Acinetobacter baumannii) [µg/mL] | Minimum inhibitory concentration, Ab ATCC 19606 (Acinetobacter baumannii) [µg/mL] | Minimum inhibitory concentration, Ab FADDI-AB034 (Acinetobacter baumannii) [µg/mL] | MIC (Klebsiella pneumoniae) [µg/mL] | Δ log (Treated-Control at 4 h) (A. baumannii ATCC 19606) [log10 CFU/mL] | Δ log (Treated-Control at 4 h) (P. aeruginosa ATCC 27853) [log10 CFU/mL] | further results
CC[C@@H]1NC(=O)[C@@H](CC(C)C)NC(=O)[C@H](CCN)NC(=O)[C@@H](NC(=O)[C@@H](CO)NC(=O)[C@@H](NC(=O)[C@H](CCN)NC(=O)c2cccc(C(F)(F)F)c2)[C@@H](C)O)CCNC(=O)[C@H]([C@@H](C)O)NC(=O)[C@H](CCN)NC(=O)[C@H](CCN)NC1=O [Compound 18] ({Benzoyl(3-CF3)}-[Dab]T[dS][Dab][Dab][dL][Abu][Dab][Dab]T; lactam 4-C) | 1 (≈ 0.862 µM) | 0.5 (≈ 0.431 µM) | 0.5 (≈ 0.431 µM) | 8 (≈ 6.89 µM) | 8 (≈ 6.89 µM) | 8 (≈ 6.89 µM) | 2 (≈ 1.72 µM) | 0.5 (≈ 0.431 µM) | 0.5 (≈ 0.431 µM) | 0.5 (≈ 0.431 µM) | 0.5 (≈ 0.431 µM) | 0.25 (≈ 0.215 µM) | −1.57 |  | 
CC(C)C[C@H]1NC(=O)[C@H](CCN)NC(=O)[C@@H](NC(=O)[C@@H](CO)NC(=O)[C@@H](NC(=O)[C@H](CCN)NC(=O)c2cccc(C(F)(F)F)c2)[C@@H](C)O)CCNC(=O)[C@H]([C@@H](C)O)NC(=O)[C@H](CCN)NC(=O)[C@H](CCN)NC(=O)[C@H]([C@@H](C)O)NC1=O [Compound 19] ({Benzoyl(3-CF3)}-[Dab]T[dS][Dab][Dab][dL]T[Dab][Dab]T; lactam 4-C) | 1 (≈ 0.85 µM) | 0.5 (≈ 0.425 µM) | 0.5 (≈ 0.425 µM) | 32 (≈ 27.2 µM) | 32 (≈ 27.2 µM) | 16 (≈ 13.6 µM) | >32 | 2 (≈ 1.7 µM) | 0.5 (≈ 0.425 µM) | 2 (≈ 1.7 µM) | 4 (≈ 3.4 µM) | 0.5 (≈ 0.425 µM) | −1.58 |  | 
CCCCCCCC(=O)N[C@@H](CCN)C(=O)N[C@H](C(=O)N[C@@H](CCN)C(=O)N[C@H]1CCNC(=O)[C@H]([C@@H](C)O)NC(=O)[C@H](CCN)NC(=O)[C@H](CCN)NC(=O)[C@H](C)NC(=O)[C@@H](CC(C)C)NC(=O)[C@H](CCN)NC1=O)[C@@H](C)O [Compound 21] (Octanoyl-[Dab]T[Dab][Dab][Dab][dL]A[Dab][Dab]T; lactam 4-C) | 0.125 (≈ 0.112 µM) | 0.125 (≈ 0.112 µM) | 0.125 (≈ 0.112 µM) | 0.5 (≈ 0.449 µM) | 0.5 (≈ 0.449 µM) | 0.5 (≈ 0.449 µM) | >32 | 1 (≈ 0.898 µM) | 2 (≈ 1.8 µM) | 1 (≈ 0.898 µM) | 0.5 (≈ 0.449 µM) | 0.25 (≈ 0.225 µM) | −2.43 | −2.26 | 
CC[C@@H]1NC(=O)[C@@H](CC(C)C)NC(=O)[C@H](CCN)NC(=O)[C@@H](NC(=O)[C@H](CN)NC(=O)[C@@H](NC(=O)[C@H](CCN)NC(=O)c2ccc(Cl)cc2)[C@@H](C)O)CCNC(=O)[C@H]([C@@H](C)O)NC(=O)[C@H](CCN)NC(=O)[C@H](CCN)NC1=O [Compound 94] ({Benzoyl(4-Cl)}-[Dab]T[Dap][Dab][Dab][dL][Abu][Dab][Dab]T; lactam 4-C) | 0.25 (≈ 0.222 µM) | 0.25 (≈ 0.222 µM) | 0.5 (≈ 0.444 µM) | 0.5 (≈ 0.444 µM) | 0.5 (≈ 0.444 µM) | 0.5 (≈ 0.444 µM) | 2 (≈ 1.78 µM) | 1 (≈ 0.888 µM) | 0.5 (≈ 0.444 µM) | 1 (≈ 0.888 µM) | 0.25 (≈ 0.222 µM) | 0.25 (≈ 0.222 µM) | −1.26 | −3.23 | 
CC[C@@H]1NC(=O)[C@@H](CC(C)C)NC(=O)[C@H](CCN)NC(=O)[C@@H](NC(=O)[C@H](CN)NC(=O)[C@@H](NC(=O)[C@H](CCN)NC(=O)c2ccc(C)c(Cl)c2)[C@@H](C)O)CCNC(=O)[C@H]([C@@H](C)O)NC(=O)[C@H](CCN)NC(=O)[C@H](CCN)NC1=O [Compound 105] (X11-[Dab]T[Dap][Dab][Dab][dL][Abu][Dab][Dab]T; lactam 4-C) | 1 (≈ 0.877 µM) | 0.5 (≈ 0.439 µM) | 1 (≈ 0.877 µM) | 0.5 (≈ 0.439 µM) | 0.5 (≈ 0.439 µM) | 1 (≈ 0.877 µM) | 2 (≈ 1.75 µM) | 0.5 (≈ 0.439 µM) | 0.5 (≈ 0.439 µM) | 0.5 (≈ 0.439 µM) | 0.25 (≈ 0.219 µM) | 0.25 (≈ 0.219 µM) | −1.31 | −2.54 | 
CC[C@@H]1NC(=O)[C@@H](CC(C)C)NC(=O)[C@H](CCN)NC(=O)[C@@H](NC(=O)[C@H](CN)NC(=O)[C@@H](NC(=O)[C@H](CCN)NC(=O)c2ccc(C(F)(F)F)c(F)c2)[C@@H](C)O)CCNC(=O)[C@H]([C@@H](C)O)NC(=O)[C@H](CCN)NC(=O)[C@H](CCN)NC1=O [Compound 111] (X12-[Dab]T[Dap][Dab][Dab][dL][Abu][Dab][Dab]T; lactam 4-C) | 0.5 (≈ 0.425 µM) | 0.25 (≈ 0.212 µM) | 0.25 (≈ 0.212 µM) | 1 (≈ 0.849 µM) | 0.5 (≈ 0.425 µM) | 1 (≈ 0.849 µM) | 1 (≈ 0.849 µM) | 0.5 (≈ 0.425 µM) | 0.5 (≈ 0.425 µM) | 0.5 (≈ 0.425 µM) | 0.25 (≈ 0.212 µM) | 0.25 (≈ 0.212 µM) | −1.66 | −3.65 | 
CC(C)C[C@H]1NC(=O)[C@H](CCN)NC(=O)[C@@H](NC(=O)[C@H](CN)NC(=O)[C@@H](NC(=O)[C@H](CCN)NC(=O)c2ccc(-c3ccc(Cl)cc3)cc2)[C@@H](C)O)CCNC(=O)[C@H]([C@@H](C)O)NC(=O)[C@H](CCN)NC(=O)[C@H](CCN)NC(=O)[C@H](C)NC1=O [Compound 144] ({Benzoyl(4-(4-Cl-Ph))}-[Dab]T[Dap][Dab][Dab][dL]A[Dab][Dab]T; lactam 4-C) |  |  |  |  |  |  |  |  |  |  |  |  |  | −2.98 | Minimum inhibitory concentration (MIC), Ec FADDI-EC001 (Enterobacter cloacae; Enterobacter cloacae FADDI-EC001, broth microdilution in CAMHB, TFA salt): 2 µg/mL; Minimum inhibitory concentration (MIC), Ec FADDI-EC003 (Enterobacter cloacae; Enterobacter cloacae FADDI-EC003, broth microdilution in CAMHB, TFA salt): 1 µg/mL; Minimum inhibitory concentration (MIC), Ec FADDI-EC006 (Enterobacter cloacae; Enterobacter cloacae FADDI-EC006, broth microdilution in CAMHB, TFA salt): 1 µg/mL; MIC (Pseudomonas aeruginosa; P. aeruginosa ATCC 27853): 1 µg/mL (≈ 0.842 µM); Minimum inhibitory concentration (MIC), Pa ATCC 27853 (Pseudomonas aeruginosa; Pseudomonas aeruginosa ATCC 27853, broth microdilution in CAMHB, TFA salt): 1 µg/mL; Minimum inhibitory concentration (MIC), Pa FADDI-PA022 (Pseudomonas aeruginosa; Pseudomonas aeruginosa FADDI-PA022, broth microdilution in CAMHB, TFA salt): 2 µg/mL; Minimum inhibitory concentration (MIC), Pa FADDI-PA025 (Pseudomonas aeruginosa; Pseudomonas aeruginosa FADDI-PA025, broth microdilution in CAMHB, TFA salt): 1 µg/mL; MIC (Acinetobacter baumannii; A. baumannii ATCC 19606): 1 µg/mL (≈ 0.842 µM); Minimum inhibitory concentration (MIC), Ab ATCC 17978 (Acinetobacter baumannii; Acinetobacter baumannii ATCC 17978, broth microdilution in CAMHB, TFA salt): 1 µg/mL; Minimum inhibitory concentration (MIC), Ab ATCC 19606 (Acinetobacter baumannii; Acinetobacter baumannii ATCC 19606, broth microdilution in CAMHB, TFA salt): 1 µg/mL; Minimum inhibitory concentration (MIC), Ab FADDI-AB034 (Acinetobacter baumannii; Acinetobacter baumannii FADDI-AB034, broth microdilution in CAMHB, TFA salt): 0.5 µg/mL; MIC (Klebsiella pneumoniae; K. pneumoniae FADDI-KP032): 1 µg/mL (≈ 0.842 µM)
CC(C)C[C@H]1NC(=O)[C@H](CCN)NC(=O)[C@@H](NC(=O)[C@H](CN)NC(=O)[C@@H](NC(=O)[C@H](CCN)NC(=O)CCCc2ccccc2)[C@@H](C)O)CCNC(=O)[C@H]([C@@H](C)O)NC(=O)[C@H](CCN)NC(=O)[C@H](CCN)NC(=O)[C@H](C)NC1=O [Compound 146] ({Butanoyl(4-Ph)}-[Dab]T[Dap][Dab][Dab][dL]A[Dab][Dab]T; lactam 4-C) |  |  |  | 0.5 (≈ 0.447 µM) |  |  |  | 4 (≈ 3.57 µM) |  |  |  | 0.5 (≈ 0.447 µM) |  | −3.63 | Minimum inhibitory concentration (MIC), Ec FADDI-EC001 (Enterobacter cloacae): 0.5 µg/mL (≈ 0.447 µM); Minimum inhibitory concentration (MIC), Ec FADDI-EC003 (Enterobacter cloacae): 0.25 µg/mL (≈ 0.223 µM); Minimum inhibitory concentration (MIC), Ec FADDI-EC006 (Enterobacter cloacae): 0.5 µg/mL (≈ 0.447 µM); Minimum inhibitory concentration (MIC), Pa ATCC 27853 (Pseudomonas aeruginosa): 0.5 µg/mL (≈ 0.447 µM); Minimum inhibitory concentration (MIC), Pa FADDI-PA022 (Pseudomonas aeruginosa): 0.5 µg/mL (≈ 0.447 µM); Minimum inhibitory concentration (MIC), Pa FADDI-PA025 (Pseudomonas aeruginosa): >32 µg/mL; Minimum inhibitory concentration (MIC), Ab ATCC 17978 (Acinetobacter baumannii): 1 µg/mL (≈ 0.893 µM); Minimum inhibitory concentration (MIC), Ab ATCC 19606 (Acinetobacter baumannii): 4 µg/mL (≈ 3.57 µM); Minimum inhibitory concentration (MIC), Ab FADDI-AB034 (Acinetobacter baumannii): 2 µg/mL (≈ 1.79 µM)
